Source: patent US20250059171A1 (Hoffmann-La Roche Inc., priority 2021, published 2025)
Where two headings read alike, the source gives them in different places.

How the values were obtained:
[1] = molecular target: SARS-CoV-2 3CLpro (Severe acute respiratory syndrome coronavirus 2, UniProt P0DTD1); test: biochemical
[2] = molecular target: HCoV-229E 3CLpro (Human coronavirus 229E, UniProt P0C6X1); test: HCoV-229E 3CLpro inhibition assay (FRET); format: biochemical
[3] = molecular target: MERS-CoV 3CLpro (Middle East respiratory syndrome-related coronavirus, UniProt K9N7C7); test: biochemical
[4] = molecular target: SARS-CoV 3CLpro (Severe acute respiratory syndrome coronavirus, UniProt P0C6X7); test: biochemical

Sequence of HCoV-229E 3CLpro (P0C6X1 2966-3267): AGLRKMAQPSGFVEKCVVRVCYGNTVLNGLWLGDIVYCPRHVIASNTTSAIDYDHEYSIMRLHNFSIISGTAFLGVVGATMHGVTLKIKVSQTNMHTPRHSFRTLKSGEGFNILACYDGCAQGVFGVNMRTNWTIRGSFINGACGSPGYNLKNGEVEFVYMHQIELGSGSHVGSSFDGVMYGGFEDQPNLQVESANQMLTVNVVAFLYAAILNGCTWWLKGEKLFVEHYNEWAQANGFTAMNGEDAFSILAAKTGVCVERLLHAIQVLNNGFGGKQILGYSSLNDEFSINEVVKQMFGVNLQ
Sequence of MERS-CoV 3CLpro (K9N7C7 3248-3553): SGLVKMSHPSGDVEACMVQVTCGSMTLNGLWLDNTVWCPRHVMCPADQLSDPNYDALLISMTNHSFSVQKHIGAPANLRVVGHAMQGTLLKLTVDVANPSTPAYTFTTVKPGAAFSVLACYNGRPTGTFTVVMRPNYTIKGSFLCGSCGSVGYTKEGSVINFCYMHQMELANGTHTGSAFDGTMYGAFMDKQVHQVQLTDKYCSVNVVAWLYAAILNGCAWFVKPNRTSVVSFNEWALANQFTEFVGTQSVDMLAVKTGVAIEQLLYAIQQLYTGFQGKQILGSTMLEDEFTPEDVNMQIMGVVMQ

| Structure (SMILES) | IC50 [1] | IC50 [2] | IC50 [3] | IC50 [4] | IC50 ([1]; read-out: IC50 in SARS-CoV-2 3CLpro assay) |
| --- | --- | --- | --- | --- | --- |
| CCC[C@H](NC(=O)C(F)(F)F)C(=O)N1C[C@@H]2CCC[C@@H]2[C@H]1C(=O)NN(C[C@@H]1CCNC1=O)C(=O)[C@H](F)Cl [Example 78, N-[(1S)-1-[(3S,3aS,6aR)-3-[[[(2R)-2-chloro-2-fluoro-acetyl]-[[(3S)-2-oxopyrrolidin-3-yl]methyl]amino]carbamoyl]-3,3a,4,5,6,6a-hexahydro-1H-cyclopenta[c]pyrrole-2-carbonyl]butyl]-2,2,2-trifluoro-acetamide] | 9 nM | 23 nM | 57 nM | 10 nM | – |
| CC(C)(C)[C@H](NC(=O)C1CC1(F)F)C(=O)N1C[C@@H]2CCC[C@@H]2[C@H]1C(=O)NN(C[C@@H]1CCNC1=O)C(=O)[C@H](F)Cl (mixture of isomers) [Example 34, Rac-2,2-difluoro-N-[(1S)-2,2-dimethyl-1-[(3S,3aS,6aR)-3-[[[(2R)-2-chloro-2-fluoro-acetyl]-[[(3S)-2-oxopyrrolidin-3-yl]methyl]amino]carbamoyl]-3,3a,4,5,6,6a-hexahydro-1H-cyclopenta[c]pyrrole-2-carbonyl]propyl]cyclopropanecarboxamide] | 8 nM | 23 nM | 66 nM | 12 nM | – |
| CC1(C)[C@@H]2[C@@H](C(=O)NN(C[C@@H]3CCNC3=O)C(=O)[C@H](F)Cl)N(C(=O)Cc3cc(C(F)(F)F)cc(C(F)(F)F)c3)C[C@@H]21 [Example 178, (1R,2S,5S)-3-[2-[3,5-bis(trifluoromethyl)phenyl]acetyl]-N′-[(2R)-2-chloro-2-fluoro-acetyl]-6,6-dimethyl-N′—[[(3S)-2-oxopyrrolidin-3-yl]methyl]-3-azabicyclo[3.1.0]hexane-2-carbohydrazide] | 148 nM | 65 nM | 264 nM | 259 nM | – |
| CC[C@H](C)[C@H](NC(=O)[C@@H](F)Cl)C(=O)N1C[C@@H]2CCC[C@@H]2[C@H]1C(=O)NN(C[C@@H]1CCCNC1=O)C(=O)[C@@H](F)Cl [Example 191, (2S)—N-[(1S,2S)-1-[(3S,3aS,6aR)-3-[[[(2S)-2-chloro-2-fluoro-acetyl]-[[(3S)-2-oxo-3-piperidyl]methyl]amino]carbamoyl]-3,3a,4,5,6,6a-hexahydro-1H-cyclopenta[c]pyrrole-2-carbonyl]-2-methyl-butyl]-2-chloro-2-fluoro-acetamide] | – | 27 nM | 49 nM | 11 nM | 7 nM |
| CCC(C)(C)[C@H](NC(=O)C1CC1)C(=O)N1C[C@@H]2CCC[C@@H]2[C@H]1C(=O)NN(C[C@H]1CCCNC1=O)C(=O)[C@H](F)Cl [Example 167b, N-[(1S)-1-[(3S,3aS,6aR)-3-[[[(2R)-2-chloro-2-fluoro-acetyl]-[[(3R)-2-oxo-3-piperidyl]methyl]amino]carbamoyl]-3,3a,4,5,6,6a-hexahydro-1H-cyclopenta[c]pyrrole-2-carbonyl]-2,2-dimethyl-butyl]cyclopropanecarboxamide] | 19 nM | 210 nM | 1630 nM | 41 nM | – |
| CC[C@@H](C)[C@H](NC(=O)C1CC1(F)F)C(=O)N1C[C@H]2[C@@H]([C@H]1C(=O)NN(C[C@@H]1CCNC1=O)C(=O)[C@H](F)Cl)C2(C)C (mixture of isomers) [Example 113, Rac-2,2-difluoro-N-[(1S,2R)-2-methyl-1-[(1R,2S,5S)-6,6-dimethyl-2-[[[(2R)-2-chloro-2-fluoro-acetyl]-[[(3S)-2-oxopyrrolidin-3-yl]methyl]amino]carbamoyl]-3-azabicyclo[3.1.0]hexane-3-carbonyl]butyl]cyclopropanecarboxamide] | 10 nM | 23 nM | 79 nM | 15 nM | – |
| CC(C)C(=O)N[C@H](C(=O)N1CC2(CC2)C[C@H]1C(=O)NN(C[C@@H]1CCNC1=O)C(=O)[C@H](F)Cl)C(C)(C)C [Example 25, N-[(1S)-1-[(6S)-6-[[[(2R)-2-chloro-2-fluoro-acetyl]-[[(3S)-2-oxopyrrolidin-3-yl]methyl]amino]carbamoyl]-5-azaspiro[2.4]heptane-5-carbonyl]-2,2-dimethyl-propyl]-2-methyl-propanamide] | 15 nM | 127 nM | 408 nM | 27 nM | – |
| CC(C)(C)[C@H](NC(=O)[C@@H]1CC1(F)F)C(=O)N1C[C@@H]2CCC[C@@H]2[C@H]1C(=O)NN(C[C@@H]1CCCNC1=O)C(=O)[C@@H](F)Cl [Example 197, (1S)—N-[(1S)-1-[(3S,3aS,6aR)-3-[[[(2S)-2-chloro-2-fluoro-acetyl]-[[(3S)-2-oxo-3-piperidyl]methyl]amino]carbamoyl]-3,3a,4,5,6,6a-hexahydro-1H-cyclopenta[c]pyrrole-2-carbonyl]-2,2-dimethyl-propyl]-2,2-difluoro-cyclopropanecarboxamide] | 11 nM | 65 nM | 94 nM | 13 nM | – |
| CC(C)(C)[C@H](NC(=O)C(F)(F)F)C(=O)N1C[C@H]2[C@@H]([C@H]1C(=O)NN(Cc1cc[nH]n1)C(=O)[C@H](F)Cl)C2(C)C [Example 10, N-[(1S)-1-[(1R,2S,5S)-2-[[[(2R)-2-chloro-2-fluoro-acetyl]-(1H-pyrazol-3-ylmethyl)amino]carbamoyl]-6,6-dimethyl-3-azabicyclo[3.1.0]hexane-3-carbonyl]-2,2-dimethyl-propyl]-2,2,2-trifluoro-acetamide] | 21 nM | 1240 nM | 3040 nM | 373 nM | – |
| CC(C)(C)[C@H](NC(=O)C(F)(F)F)C(=O)N1C[C@H]2[C@@H]([C@H]1C(=O)NN(C[C@H]1CCCNC1=O)C(=O)[C@H](F)Cl)C2(C)C (single isomer, unassigned) [Example 163a] | 9 nM | 52 nM | 226 nM | 18 nM | – |
| CC(C)(C)[C@H](NC(=O)C1(F)CCC1)C(=O)N1C[C@H]2[C@@H]([C@H]1C(=O)NN(C[C@@H]1CCNC1=O)C(=O)[C@H](F)Cl)C2(C)C [Example 91, N-[(1S)-1-[(1R,2S,5S)-2-[[[(2R)-2-chloro-2-fluoro-acetyl]-[[(3S)-2-oxopyrrolidin-3-yl]methyl]amino]carbamoyl]-6,6-dimethyl-3-azabicyclo[3.1.0]hexane-3-carbonyl]-2,2-dimethyl-propyl]-1-fluoro-cyclobutanecarboxamide] | 12 nM | 39 nM | 115 nM | 15 nM | – |
| CCC(CC)[C@H](NC(=O)C1CC(F)(F)C1)C(=O)N1C[C@H]2[C@@H]([C@H]1C(=O)NN(C[C@@H]1CCNC1=O)C(=O)[C@H](F)Cl)C2(C)C [Example 130, N-[(1S)-1-[(1R,2S,5S)-2-[[[(2R)-2-chloro-2-fluoro-acetyl]-[[(3S)-2-oxopyrrolidin-3-yl]methyl]amino]carbamoyl]-6,6-dimethyl-3-azabicyclo[3.1.0]hexane-3-carbonyl]-2-ethyl-butyl]-3,3-difluoro-cyclobutanecarboxamide] | 12 nM | 32 nM | 87 nM | 19 nM | – |
| CC[C@@H](C)[C@H](NC(=O)[C@H](C)F)C(=O)N1C[C@H]2[C@@H]([C@H]1C(=O)NN(C[C@@H]1CCNC1=O)C(=O)[C@H](F)Cl)C2(C)C [Example 117, (2S)—N-[(1S,2R)-1-[(1R,2S,5S)-2-[[[(2R)-2-chloro-2-fluoro-acetyl]-[[(3S)-2-oxopyrrolidin-3-yl]methyl]amino]carbamoyl]-6,6-dimethyl-3-azabicyclo[3.1.0]hexane-3-carbonyl]-2-methyl-butyl]-2-fluoro-propanamide] | 11 nM | 25 nM | 86 nM | 11 nM | – |
| CC[C@H](C)[C@H](NC(=O)C(F)(F)F)C(=O)N1C[C@H]2[C@@H]([C@H]1C(=O)NN(C[C@H]1CCCNC1=O)C(=O)[C@H](F)Cl)C2(C)C (single isomer, unassigned) [Example 165b] | 20 nM | 57 nM | 291 nM | 36 nM | – |
| CC[C@H](C)[C@H](NC(=O)C(Cl)Cl)C(=O)N1C[C@@H]2CCC[C@@H]2[C@H]1C(=O)NN(C[C@@H]1CCNC1=O)C(=O)[C@H](F)Cl [Example 49, N-[(1S,2S)-1-[(3S,3aS,6aR)-3-[[[(2R)-2-chloro-2-fluoro-acetyl]-[[(3S)-2-oxopyrrolidin-3-yl]methyl]amino]carbamoyl]-3,3a,4,5,6,6a-hexahydro-1H-cyclopenta[c]pyrrole-2-carbonyl]-2-methyl-butyl]-2,2-dichloro-acetamide] | 7 nM | 33 nM | 96 nM | 13 nM | – |
| CC(C)(C)C[C@H](NC(=O)C(F)(F)F)C(=O)N1C[C@H]2[C@@H]([C@H]1C(=O)NN(C[C@@H]1CCNC1=O)C(=O)[C@H](F)Cl)C2(C)C [Example 66, N-[(1S)-1-[(1R,2S,5S)-2-[[[(2R)-2-chloro-2-fluoro-acetyl]-[[(3S)-2-oxopyrrolidin-3-yl]methyl]amino]carbamoyl]-6,6-dimethyl-3-azabicyclo[3.1.0]hexane-3-carbonyl]-3,3-dimethyl-butyl]-2,2,2-trifluoro-acetamide] | 10 nM | 35 nM | 141 nM | 22 nM | – |
